# Source: patent US20180344199A1, “OPTIMIZED PLACEMENT OF CANNULA FOR DELIVERY OF THERAPEUTICS TO THE BRAIN” (The Regents of the University of California, priority 2010, published 2018)
# “And” between values parts separate entries of the source, which are not always exact repeats. Equal entries are not always repeated.
# What was measured:
# [1] = CED infusion of GDL or free Gadoteridol into NHP putamen, real-time MRI distribution; assay type: in vivo, Rhesus macaques and Cynomolgus monkeys
# Experimental: Thirteen normal adult NHP, including 11 Rhesus macaques (7 male and 4 female, aged from 8 to 18 years; mean age 11.9 years, weight 4-9.4 kg) and 2 Cynomolgus monkeys (one male and one female, age 7 years for both; weight 5 and 7 kg respectively) were the subjects in the present study. Experimentation was performed according to the National Institutes of Health guidelines and to the protocols approved by the Institutional Animal Care and Use Committee at the University of California San Francisco (San Francisco, Calif.) and at Valley Biosystems (Sacramento, Calif.). Thirteen animals received a total of 25 intracranial infusion of GDL (2 mM) or free Gadoteridol (2 mM, Prohance; Bracco Diagnostics, Princeton, N.J.) into the putamen. Infusions were performed by previously established CED techniques for NHP (Bankiewicz, Eberling et al. 2000). GDL were prepared as previously described (Fiandaca, Varenika et al. 2008) (Krauze, McKnight et al. 2005).
# Primates received a baseline MRI before surgery to visualize anatomical landmarks and to generate stereotactic coordinates of the proposed target infusion sites for each animals. NHPs underwent neurosurgical procedures to position the MRI-compatible guide cannula over the putamen. Each customized guide cannula was cut to a specified length, stereotactically guided to its target through a burr-hole created in the skull, and secured to the skull by dental acrylic. The tops of the guide cannula assemblies were capped with stylet screws for simple access during the infusion procedure. Animals recovered for at least 2 weeks before initiation of infusion procedures. Animals were anesthetized with isoflurane (Aerrane; Ohmeda Pharmaceutical Products Division, Liberty Corner, N.J.) during real-time MRI acquisition. Each animal's head was placed in an MRI-compatible stereotactic frame, and a baseline MRI was performed. Vital signs, such as heart rate and PO2, were monitored throughout the procedure.
# Briefly, the infusion system consisted of a fused silica reflux-resistant cannula (Fiandaca, Varenika et al. 2008) (Krauze, McKnight et al. 2005) that was connected to a loading line (containing GDL or free Gadoteridol), an infusion line with oil, and another infusion line with trypan blue solution. A 1-ml syringe (filled trypan blue solution) mounted onto a micro-infusion pump (BeeHive, Bioanalytical System, West Lafayette, Ind.), regulated the flow of fluid through the system. Based on MRI coordinates, the cannula was mounted onto a stereotactic holder and manually guided to the targeted region of the brain through the previously placed guide cannula. The length of each infusion cannula was measured to ensure that the distal tip extended 3 mm beyond the length of the respective guide. This created a stepped design at the tip of the cannula to maximize fluid distribution during CED procedures and minimize reflux along the cannula tract. We refer to this transition from fused silica tip to a fused silica sheath as the “step”, and all positioning data is derived from the position of this step because of its unambiguous visibility on MRI.
# After securing placement of the infusion cannula, the CED procedures were initiated with real-time MRI data being acquired (real-time convective delivery, RCD). We used the same infusion parameters for every NHP infused throughout the study. Infusion rates were as follows: 0.1 μl/min was applied when lowering cannula to targeted area and increased at 10-min intervals to 0.2, 0.5, 0.8, 1.0, and 2.0 μl/min. Approximately 15 min after infusion, the cannula was withdrawn from the brain. Four animals received multiple infusions. Each animal had at least a 4-week interval between each infusion procedure.
# NHPs were sedated with a mixture of ketamine (Ketaset, 7 mg/kg, IM) and xylazine (Rompun, 3 mg/kg, IM). After sedation, each animal was placed in a MRI-compatible stereotactic frame. The ear-bar and eye-bar measurements were recorded, and an intravenous line was established. […]
# [2] = CED infusion of gadoteridol into NHP thalamus, real-time MRI distribution; assay type: in vivo, Cynomolgus monkeys and Rhesus macaques
# [3] = CED infusion of gadoteridol into NHP brainstem, real-time MRI distribution; assay type: in vivo, Cynomolgus monkeys and Rhesus macaques
# [4] = CED co-infusion of AAV2 vectors and Gd into NHP thalamus, MRI volume of Gd distribution; settings: co-infused with AAV2-GDNF, Vi ~150 μL, n=5, mean±SEM
# [5] = 6 cases, good distribution with leakage
structure (smiles),measurement,setting,value
CC(O)CN1CCN(CC(=O)[O-])CCN(CC(=O)[O-])CCN(CC(=O)[O-])CC1.[Gd+3] (centres unmarked) [Gadoteridol],"final Vd in WMT, mean volume","[1]; blue zone, 4 cases",19.4±0.01 mm3
same,"infusion volume when leakage was first seen, mean","[1]; blue zone, 4 cases",6.9 ± 0.9 µL
same,"final Vd in WMT, mean volume","[1]; red zone, 13 cases",66.8±0.01 mm^3
same,"infusion volume when leakage was first seen, mean","[1]; red zone, 13 cases",7.9 ± 1.7 µL
same,"Vd in the putamen, mean volume","[1]; step in blue zone, 4 cases",139.6±0.05 mm^3
same,"Vd in the putamen, mean volume","[1]; step in green zone, 8 cases",116.4±0.04 mm^3
same,"Vd (putamen), mean volume","[1]; step in red zone, 13 cases",62.1±0.01 mm3
same,"Vd in the thalamus, mean volume",[2]; [5],191.3±38.1 mm^3
same,"percent of Vd in the thalamus, mean",[2]; [5],89.0%±1.3%
same,"Vd of leakage, mean volume","[2]; 6 cases, leakage into WMT / lenticular fasciculus",24.3±7.0 mm^3
same,"Vd in the thalamus, mean volume",[2]; 8 cases with excellent distribution,405.6±66.6 mm^3
same,percent of Vd in the thalamus vs total Vd in thalamus and WMT,[2]; all 8 cases with excellent distribution,100%
same,maximum distribution,"[2]; thalamus, for Vi 158 μl",around 660.3 mm^3
same,distribution ratio,"[2]; thalamus, maximum distribution at Vi 158 μl",417.9%
same,"Vd in the brainstem, mean volume",[3]; 8 infusions,585.2±75.4 mm^3
same,percent of Vd in the brainstem vs total Vd in brainstem and thalamus,"[3]; 100% in 7 cases, 95.6% in one case, listed as Gd",100% and 95.6%
same,maximum distribution,"[3]; brainstem, for Vi 212 μl",around 695.6 mm^3
same,distribution ratio,"[3]; brainstem, maximum distribution at Vi 212 μl",328.1%
same,Vd in thalamus (leakage),[3]; one brainstem case with leakage into thalamus at end of infusion,30.5 mm^3
same,"ratio of Vd/Vi, mean",[4],4.68±0.33
